The values that follow come from ChEMBL document CHEMBL1153708, “Synthesis and evaluation of a thio analogue of duocarmycin SA” (Bioorg Med Chem Lett, 2009).

Activity calls are given as the source filed them. The rule behind the calls is not given here.

The test system of the first test is Nucleic Acid. Kind of test: Induction of w794 DNA alkylation at 10 uM after 24 hrs by PAGE. In kind it is nucleic-acid assay.
Consider `COC(=O)c1cc2c([nH]1)C(=O)C=C1N(C(=O)c3cc4cc(OC)c(OC)c(OC)c4[nH]3)C[C@@H]3C[C@@]123`, for which the result was Active.
Still for that read-out and setting: the entry for `COC(=O)c1cc2c(s1)C(=O)C=C1N(C(=O)c3cc4cc(OC)c(OC)c(OC)c4[nH]3)C[C@@H]3C[C@@]123` is “Active”; for `COC(=O)c1cc2c([nH]1)C(=O)C=C1N(C(=O)c3cc4cc(OC)c(OC)c(OC)c4[nH]3)C[C@H]3C[C@]123` it is “Active”.

In a further test the test system is L1210. Nature of the test: Cytotoxicity against mouse L1210 cells. It is filed as functional, cell-based.
With `COC(=O)c1cc2c(s1)C(=O)C=C1N(C(=O)c3cc4cc(OC)c(OC)c(OC)c4[nH]3)C[C@H]3C[C@]123`, 0.007 nM corresponded to half-maximal inhibition (IC50).
`COC(=O)c1cc2c(s1)C(=O)C=C1N(C(=O)OC(C)(C)C)C[C@@H]3C[C@@]123`: the IC50 (as a rule, the concentration that gives 50% inhibition) was found to be 55 nM.
Same read-out and setting: in the case of `COC(=O)c1cc2c(s1)C(=O)C=C1N(C(=O)c3cc4cc(OC)c(OC)c(OC)c4[nH]3)C[C@@H]3C[C@@]123` it was 0.06 nM; in that of `COC(=O)c1cc2c(s1)C(=O)C=C1N(C(=O)OC(C)(C)C)C[C@H]3C[C@]123`, 6 nM.
Still for that read-out and setting: the figure for `COC(=O)c1cc2c([nH]1)C(=O)C=C1N(C(=O)OC(C)(C)C)C[C@@H]3C[C@@]123` is 60 nM.
